Results published in patent publication EP4520331A1, “PHARMACEUTICAL COMPOSITION COMPRISING TRPV4 INHIBITOR FOR USE IN THE PREVENTION OR TREATMENT OF CEREBRAL CAVERNOUS MALFORMATIONS (CCM)” (Université Grenoble Alpes, priority 2023, dated 2025).

Assays:
Format in all cases: cell-based, Human
[1] = test system: CCM2-depleted endothelial cells; assay: Ki67 immunofluorescence staining (proliferative marker); conditions: 400nM added to siCCM2 ECs; Figure 1E
Experimental: (§1) Pooled Human Umbilical Vein Endothelial Cells (HUVEC) were obtained from Pelobiotech. Upon reception, HUVEC at P0 were expanded over 2 passages in 100µg/ml collagen 1 (from rat tail, BD) coated flasks in complete EGM-2 medium (Lonza) supplemented with 100 U/ml penicillin and 100 µg/ml streptomycin at 37°C in a 5% CO2 - 3% O2 humidified chamber. HUVEC at passage 3 were transfected twice at 24 h-intervals with 30 nM siRNA and Lipofectamine RNAi max (Life Technologies, ref. 13778-150) according to the manufacturer's instructions in OptiMEM at 37°C in a regular 5% CO2 in a humidified chamber. For double transfections, 30 nM of each siRNA duplexes (Dharmacon smartpool ON-TARGET plus Thermo Scientific) was used: Non-targeting siRNA #1 (ref. D-001810-01), CCM2 siRNA (ref. L-014728-01) and TRPV4 siRNA (ref. L-004195-00).
Transfected HUVEC were seeded at 3x10^4 cells (sparsed, for Ki67 staining) or […] (confluent, for VE-cadherin staining) in 24-well plates on coverslips coated with 10 µg/ml fibronectin (from human plasma, Sigma Aldrich) and incubated overnight (Ki67 experiment) or for 48h (VE-cadherin experiment) in complete EBM-2 medium in presence or absence of the calcium channels inhibitors dissolved in DMSO. […] The percentage of Ki67 positive cells was counted manually out of more than 130 cells total.

[2] = test system: CCM2-depleted endothelial cells; assay: xCELLigence proliferation assay (RTCA impedance); conditions: 400nM added to siCCM2 ECs; RTCA xCelligence impedance over 24h; Figure 1B
Experimental: as §1
Proliferation assay was performed using the xCELLigence Real-Time Cell Analysis (RTCA) DP instrument in combination with E-plate 16 (ACEA Biosciences) coated with 100µL of 100µg/mL collagen 1 (from rat tail) for 30 min at 37°C and washed 2 times with PBS 1X. 50 µL of complete EBM-2 medium was added and baseline without cells was made with RTCA software. 2.5x103 transfected HUVEC (4 wells per condition) were seeded 24h after the second round of transfection in 50µL of complete EBM-2-medium. […] Impedance measurements were recorded every 5 min during 24h. […]

[3] = test system: CCM2-depleted endothelial cells; assay: Gelatin degradation assay (ECM degradation); conditions: 800 nM; siCCM2 HUVEC; Figure 3B
Experimental: as §1, with “For double transfections, 30 nM of each siRNA duplexes (Dharmacon smartpool ON-TARGET plus Thermo Scientific) was used: Non-targeting siRNA #1 (ref. D-001810-01), CCM2 siRNA (ref. L-014728-01) and TRPV4 siRNA (ref. L-004195-00).” left out
Coverslips in 24 well-plates were coated with gelatin-Alexa488 dye as previously described (70). siCT and siCCM2 HUVEC were seeded 24h after the second siRNA transfection at 3x10^4/well in OptiMEM medium in presence or absence of the calcium channels inhibitors overnight at 37°C in a 5% CO2 incubator. […] For a quantitative analysis of the degradative skill of siRNA transfected cells, 10 images per condition were randomly acquired and were converted to binary images using B&W thresholding on Imaged. The total area of the black zones corresponding to the total area of degradation of the fluorescent gelatin was measured.

O=C(NC1(c2ccccc2)CC1)c1c(CN2CCC(N3CCCCC3)CC2)c(-c2cccc(C(F)(F)F)c2)nc2cc(Br)ccc12 [GSK2193874, 3-([1,4'-Bipiperidin]-1'-ylmethyl)-7-bromo-N-(1-phenylcyclopropyl)-2-[3-(trifluoromethyl)phenyl]-4-quinolinecarboxamide]
proliferative marker Ki67 [1]: restoration | proliferation rate [2]: restoration | CCM2-depleted ECs capacity to degrade the ECM such as gelatin [3]: inhibits
